Source: PubChem BioAssay AID330 (DTP/NCI, 2004)
Where “and” joins values, the source holds several entries; their conditions need not be identical. Identical values can stand only once. Toxic doses and inconclusive results are not listed.

System: P388 leukemia ip, CD2F1 mice, survival T/C
Assay: NCI In Vivo Anticancer Drug Screen. Data for tumor model P388 Leukemia (intraperitoneal) in CD2F1 (CDF1) mice
Details: endpoint: median survival time, higher = longer survival
How it was run: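 Mice carrying the transplanted tumor received test compound or vehicle. Survival was recorded in each group, and the value is the treated-group measurement divided by that of the vehicle-treated control group.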

[1] = dose: 240.0 mg/kg/injection, schedule: Q01DX005 (ip), vehicle: saline with Tween-80
[2] = dose: 60.0 mg/kg/injection, schedule: Q01DX005 (ip), vehicle: saline with Tween-80
[3] = dose: 120.0 mg/kg/injection, schedule: Q01DX005 (ip), vehicle: saline with Tween-80
[4] = dose: 50.0 mg/kg/injection, schedule: Q01DX009 (ip), vehicle: Klucel (hydroxypropylcellulose) (HPC)
[5] = dose: 100.0 mg/kg/injection, schedule: Q01DX009 (ip), vehicle: Klucel (hydroxypropylcellulose) (HPC)
[6] = dose: 200.0 mg/kg/injection, schedule: Q01DX009 (ip), vehicle: Klucel (hydroxypropylcellulose) (HPC)
[7] = dose: 50.0 mg/kg/injection, schedule: Q01DX005 (ip), vehicle: saline with Tween-80
[8] = dose: 100.0 mg/kg/injection, schedule: Q01DX005 (ip), vehicle: saline with Tween-80
[9] = dose: 50.0 mg/kg/injection, schedule: Q01DX005 (ip), vehicle: Klucel (hydroxypropylcellulose) (HPC)
[10] = dose: 100.0 mg/kg/injection, schedule: Q01DX005 (ip), vehicle: Klucel (hydroxypropylcellulose) (HPC)
[11] = dose: 200.0 mg/kg/injection, schedule: Q01DX005 (ip), vehicle: Klucel (hydroxypropylcellulose) (HPC)
[12] = dose: 100.0 mg/kg/injection, schedule: Q01DX001 (ip), vehicle: saline with Tween-80

O=C1C=CC(Nc2cc(Cl)ccc2Cl)C1Nc1cc(Cl)ccc1Cl (centres undefined)
T/C (dose: 1.88 mg/kg/injection, schedule: Q01DX005 (ip), vehicle: saline with Tween-80): 99 % of control
T/C (dose: 3.75 mg/kg/injection, schedule: Q01DX005 (ip), vehicle: saline with Tween-80): 97 % of control
T/C (dose: 7.5 mg/kg/injection, schedule: Q01DX005 (ip), vehicle: saline with Tween-80): 87 % of control and 93 % of control
T/C [1]: 86 % of control and 89 % of control

COc1ccccc1NC(=O)C1=CNC(C)=C(C(=O)Nc2ccccc2OC)C1/C=C/c1ccccc1 (centres undefined)
T/C [2]: 100 % of control
T/C [3]: 105 % of control
T/C [1]: 105 % of control

CNC(=O)CC(=O)NC
T/C (dose: 100.0 mg/kg/injection, schedule: Q04DX003 (ip), vehicle: suspension in saline): 93 % of control
T/C (dose: 200.0 mg/kg/injection, schedule: Q04DX003 (ip), vehicle: suspension in saline): 100 % of control
T/C (dose: 400.0 mg/kg/injection, schedule: Q04DX003 (ip), vehicle: suspension in saline): 95 % of control

Cc1cc(Nc2ccc(N(CCCl)CCCl)cc2)cc(C)c1O
T/C (dose: 6.25 mg/kg/injection, schedule: Q01DX009 (ip), vehicle: saline with Tween-80): 151 % of control
T/C (dose: 12.5 mg/kg/injection, schedule: Q01DX009 (ip), vehicle: saline with Tween-80): 154 % of control and 169 % of control
T/C (dose: 25.0 mg/kg/injection, schedule: Q01DX009 (ip), vehicle: saline with Tween-80): 169 % of control and 175 % of control

C=CCNC(=S)Nc1ccc(NC(C)=O)c(OC)c1
T/C [4]: 102 % of control
T/C [5]: 102 % of control
T/C [6]: 86 % of control

COc1ccc(Nc2ncnc3ccccc23)cc1CN(CCCl)CCCl
T/C (dose: 100.0 mg/kg/injection, schedule: Q01DX001 (ip), vehicle: Klucel (hydroxypropylcellulose) (HPC)): 100 % of control
T/C (dose: 200.0 mg/kg/injection, schedule: Q01DX001 (ip), vehicle: Klucel (hydroxypropylcellulose) (HPC)): 90 % of control

O=c1cc(-c2ccccc2)c2cc3c(cc2[nH]1)oc1ccccc13
T/C [2]: 93 % of control
T/C [3]: 98 % of control
T/C [1]: 100 % of control

CCC#CCN(CCCC)CCCC
T/C [7]: 106 % of control
T/C [8]: 103 % of control

COc1cccc2c1oc1c3ccc(O)cc3oc(=O)c21
T/C (dose: 6.2 mg/kg/injection, schedule: Q01DX007 (ip), vehicle: carboxymethylcellulose (CMC)): 91 % of control

Cc1cc(NCCCN(C)C)c2c(ccc3c(NCCCN(C)C)cc(C)nc32)n1
T/C (dose: 6.0 mg/kg/injection, schedule: Q01DX009 (ip), vehicle: suspension in saline): 98 % of control
T/C (dose: 12.0 mg/kg/injection, schedule: Q01DX009 (ip), vehicle: suspension in saline): 104 % of control
T/C (dose: 24.0 mg/kg/injection, schedule: Q01DX009 (ip), vehicle: saline with Tween-80): 96 % of control
T/C (dose: 24.0 mg/kg/injection, schedule: Q01DX009 (ip), vehicle: suspension in saline): 115 % of control

CCCOc1ccc2c(NCCCCCCCCNc3c4ccccc4nc4cc(OCCC)ccc34)c3ccccc3nc2c1
T/C (dose: 0.63 mg/kg/injection, schedule: Q01DX009 (ip), vehicle: other): 109 % of control
T/C (dose: 1.25 mg/kg/injection, schedule: Q01DX009 (ip), vehicle: lactic acid): 162 % of control
T/C (dose: 7.5 mg/kg/injection, schedule: Q01DX009 (ip), vehicle: other): 90 % of control

Oc1c(Cl)cc(Cl)cc1C=NCCN(CCN=Cc1cc(Cl)cc(Cl)c1O)CCN=Cc1cc(Cl)cc(Cl)c1O
T/C [9]: 98 % of control
T/C [10]: 92 % of control
T/C [11]: 101 % of control

Cn1nc(C(N)=O)c(=O)[nH]c1=O
T/C [7]: 104 % of control
T/C [8]: 97 % of control
T/C (dose: 200.0 mg/kg/injection, schedule: Q01DX005 (ip), vehicle: saline with Tween-80): 103 % of control

Cc1cccc(Cl)c1NC(=O)Nc1ccc(Cl)cc1C(=O)c1ccccc1
T/C [2]: 99 % of control
T/C [3]: 94 % of control
T/C [1]: 101 % of control

COC(=O)C1(CC(=O)c2ccc(Cl)cc2)NC(=S)NC(=O)C1C#N (centres undefined)
T/C [2]: 99 % of control
T/C [3]: 98 % of control
T/C [1]: 106 % of control

Cc1noc2c1CC(=O)c1ccccc1OC2
T/C [2]: 100 % of control
T/C [3]: 98 % of control
T/C [1]: 94 % of control

COc1ccc(S(=O)c2coc3ccccc3c2=O)cc1 (centres undefined)
T/C [2]: 99 % of control
T/C [3]: 100 % of control
T/C [1]: 100 % of control

O=C(O)c1cccc(C(=O)O)c1Sc1ccccc1
T/C [12]: 103 % of control
T/C (dose: 200.0 mg/kg/injection, schedule: Q01DX001 (ip), vehicle: saline with Tween-80): 100 % of control
T/C (dose: 400.0 mg/kg/injection, schedule: Q01DX001 (ip), vehicle: saline with Tween-80): 94 % of control

O=C(NCCO)c1ccc(O)cc1O
T/C (dose: 60.0 mg/kg/injection, schedule: Q01DX005 (ip), vehicle: Klucel (hydroxypropylcellulose) (HPC)): 116 % of control
T/C (dose: 120.0 mg/kg/injection, schedule: Q01DX005 (ip), vehicle: Klucel (hydroxypropylcellulose) (HPC)): 120 % of control
T/C (dose: 240.0 mg/kg/injection, schedule: Q01DX005 (ip), vehicle: Klucel (hydroxypropylcellulose) (HPC)): 120 % of control

CC1CC(=O)OC(C(=O)c2ccccc2)N1c1ccc(C(F)(F)F)cc1N (centres undefined)
T/C [2]: 110 % of control
T/C [3]: 108 % of control
T/C [1]: 109 % of control

c1ccc(/C2=N\OCCCOc3ccccc32)cc1
T/C [9]: 88 % of control
T/C [10]: 87 % of control
T/C [11]: 87 % of control

CN1C2CCC1c1c([nH]c3ccccc13)C2 (centres undefined)
T/C [2]: 94 % of control
T/C [3]: 94 % of control

C/C=C/c1cnc2nc(N)nc(N)c2n1
T/C (dose: 100.0 mg/kg/injection, schedule: Q04DX002 (ip), vehicle: saline with Tween-80): 99 % of control
T/C (dose: 200.0 mg/kg/injection, schedule: Q04DX002 (ip), vehicle: saline with Tween-80): 104 % of control
T/C (dose: 400.0 mg/kg/injection, schedule: Q04DX002 (ip), vehicle: saline with Tween-80): 107 % of control

Cc1ccc2ccc3ccc(CCl)nc3c2n1
T/C (dose: 3.12 micromoles/kg, schedule: Q01DX005 (ip), vehicle: other): 95 % of control
T/C (dose: 6.25 micromoles/kg, schedule: Q01DX005 (ip), vehicle: other): 99 % of control
T/C (dose: 12.5 micromoles/kg, schedule: Q01DX005 (ip), vehicle: other): 102 % of control

O=C(NC1CCCN1C(=O)/C=C/c1ccccc1)NC1CCCN1C(=O)/C=C/c1ccccc1 (centres undefined)
T/C [2]: 100 % of control
T/C [3]: 88 % of control
T/C [1]: 101 % of control

C=C(Cl)C[N+]12CN3CN(CN(C3)C1)C2
T/C (dose: 12.5 mg/kg/injection, schedule: Q01DX009 (ip), vehicle: saline): 100 % of control
T/C (dose: 25.0 mg/kg/injection, schedule: Q01DX009 (ip), vehicle: saline): 96 % of control
T/C (dose: 50.0 mg/kg/injection, schedule: Q01DX009 (ip), vehicle: saline): 105 % of control
T/C (dose: 100.0 mg/kg/injection, schedule: Q01DX009 (ip), vehicle: saline): 107 % of control

NC(N)=N/N=C1\C/C(=N\N=C(N)N)c2cc3ccccc3cc21
T/C (dose: 12.5 mg/kg/injection, schedule: Q01DX001 (ip), vehicle: saline with Tween-80): 105 % of control
T/C (dose: 25.0 mg/kg/injection, schedule: Q01DX001 (ip), vehicle: saline with Tween-80): 102 % of control
T/C (dose: 25.0 mg/kg/injection, schedule: Q01DX001 (ip), vehicle: saline): 103 % of control
T/C (dose: 50.0 mg/kg/injection, schedule: Q01DX001 (ip), vehicle: saline with Tween-80): 91 % of control
T/C (dose: 50.0 mg/kg/injection, schedule: Q01DX001 (ip), vehicle: saline): 98 % of control
T/C [12]: 93 % of control
T/C (dose: 100.0 mg/kg/injection, schedule: Q01DX001 (ip), vehicle: saline): 99 % of control

O=C(CNC(=O)Nc1cccc(C(F)(F)F)c1)NNC(=O)Nc1ccc(Cl)c([N+](=O)[O-])c1
T/C [2]: 92 % of control
T/C [3]: 87 % of control
T/C [1]: 92 % of control

OC1(c2ccc(C3(O)C(c4ccccc4)=C(c4ccccc4)C(c4ccccc4)=C3c3ccccc3)cc2)C(c2ccccc2)=C(c2ccccc2)C(c2ccccc2)=C1c1ccccc1
T/C [4]: 105 % of control
T/C [5]: 86 % of control
T/C [6]: 90 % of control

CS/C(=C1/C(=O)N(c2ccccc2)N=C1c1ccc(Br)cc1)N1CC1
T/C (dose: 100.0 mg/kg/injection, schedule: Q04DX003 (ip), vehicle: Klucel (hydroxypropylcellulose) (HPC)): 95 % of control
T/C (dose: 200.0 mg/kg/injection, schedule: Q04DX003 (ip), vehicle: Klucel (hydroxypropylcellulose) (HPC)): 101 % of control

CC(C)=CCC/C(C)=C/CC1=CC(=O)C=CC1=O
T/C (dose: 25.0 mg/kg/injection, schedule: Q01DX009 (ip), vehicle: Klucel (hydroxypropylcellulose) (HPC)): 101 % of control
T/C [4]: 97 % of control
T/C [5]: 87 % of control
